# In US6689803B2, “Compositions and methods for treating surgical adhesions” (Angiotech Pharmaceuticals, Inc., priority 1996, dated 2004):
# pEC50: −log10 of the molar value. Marks after values point to notes of the source that are not given here.
# How the values were obtained:
# [1] = system: AP-1 transcriptional activity; assay: IL-1 stimulated AP-1 driven CAT reporter gene in chondrocytes; assay type: cell-based; conditions: 10^−7 to 10^−5 M
# Text: The data noted with an asterisk (*) have significance compared with IL-1-induced CAT activity according to a t-test, P<0.05. The results shown are representative of three independent experiments.
# EOMA cells [2] = assay: Endothelial cell proliferation (trypan blue exclusion); assay type: cell-based; conditions: 48 hours
# Experimental: Following the incubation, the number of viable cells were determined using the trypan blue exclusion assay. […] All cell toxicity assays were performed three times, and each individual measurement was made in triplicate.
# [3] = In vitro release of paclitaxel from polymeric formulations; assay type: physicochemical; conditions: for paclitaxel released: 10 days in PBS
# Experimental: The tube was incubated at 37° C. with gentle rotational mixing. […] The supernatant (10 ml) was extracted with 1 ml methylene chloride. […] The injection volume was 20 μl and the flow rate was 1 ml/minute.
# An equal volume of PBS was replaced in each tube to maintain sink conditions throughout the study.
# Sampling daily (three sampling at the first day) to maintain the sink condition.
# EOMA cells [4] = assay: Endothelial cell apoptosis (DAPI staining); assay type: cell-based; conditions: 24 hours
# Experimental: The cells were fixed with 3.7% formaldehyde in phosphate buffered saline for 20 minutes, stained with DAPI (4′-6-diaminido-2-phenylindole), 1 ug/ml, and examined with a 40×objective under epifluorescent optics. Apoptotic cells were evaluated by scoring cells for fragmented nuclei and condensed chromatin.
# chondrocytes = assay: Viability of non-proliferating chondrocytes (trypan blue); assay type: cell-based; conditions: up to 10^−5 M, 72 hours
# Text: While it is important that a disease-modifying agent be capable of strongly inhibiting a variety of inappropriate cellular activities (proliferation, inflammation, proteolytic enzyme production) which occur in excess during the development of chronic inflammation, it must not be toxic to the normal tissues. It is particularly critical that normal cells not be damaged, as this would lead to progression of the disease.
# [5] = system: AP-1 DNA binding activity; assay: IL-1 induced AP-1 DNA binding (gel mobility shift); assay type: cell-based; conditions: 10^−7 to 10^−5 M, pretreated 24 hours
# Experimental: Binding activity was assayed with a radiolabeled human AP-1 sequence probe and gel mobility shift assay. […] The “com” lane contains excess unlabeled AP-1 oligonucleotide. The results shown are representative of tree independent experiments.
# skin inflammation = assay: Mouse ear skin inflammation (oxazolone delayed-type hypersensitivity, PMA)
# Experimental: Briefly, mice were sensitized to oxazolone by topical application of the compound onto the skin. Five days later, mice were challenged with oxazolone by topical application onto the ear skin (left ear: oxazolone, right ear: vehicle alone), resulting in a cutaneous inflammatory, “delayed-type hypersensitivity” reaction. […] Epon-embedded, Giesma-stained, 1 μm tissue sections were evaluated for the presence of inflammatory cells, for the presence of tissue mast cells and their state of activation, and for the degree of epidermal hyperplasia.
# LNCaP cells = assay: LNCaP cell growth (crystal violet); assay type: cell-based, human; conditions: Homo sapiens, LNCaP, 120 h; 5 days; read-out: EC50
# Experimental: LNCaP cells were seeded at concentrations of 2×10^3 and 1×10^3 cells/well respectively in 96 well plates. […] After incubation, the cells were fixed with 1% glutaraldehyde solution, and stained for 5 minutes with 0.5% crystal violet. The dye was successively eluted with 100 μl of buffer solution and the absorbance was read on a Titertek Multiskan microplate reader using a wavelength of 492 nm Absorbance. Cell growth was expressed as a percentage relative to control wells in the absence of the compound (set at 100%).
# adhesion formation = assay: Rabbit uterine horn model of surgical adhesions; assay type: in vivo
# Experimental: New Zealand female white rabbits were anesthetized and a midline incision made through the skin and the abdominal wall. Both uterine horns were located and exteriorized. Using a French Catheter Scale, the diameter of each uterine horn was measured and recorded. Only those rabbits with uterine horns measuring size 8 to 16, inclusive, on the French scale were used. Using a number 10 scalpel blade, 5 cm lengths of each uterine horn, approximately 1 cm from the uterine bifurcation, were scraped, 40 times per side, until punctuate bleeding. Hemostasis was achieved by tamponade.
# Test agent (0.4 to 2.5 ml) was applied over the horns via an 18 gauge needle. Uterine horns were replaced into the pelvis and the abdominal incision closed.
# Body weights of the animals were recorded. The abdomen was opened and the surgical site inspected. Adhesions were graded by a blinded observer as follows:
# The total length (cm) of each uterine horn involved with adhesions was estimated and recorded.
# Adhesions were grades as 0 (absent), 1.0 (filmy adhesions) and 2.0 (tenacious, requiring sharp dissection).
# The degree of uterine convolution was recorded according to the following scale:
# No convolution: Straight lengths of adherent or non-adherent horns which are clearly discerned.
# Completely convoluted: It is impossible to discern uterine anatomy because the horn is completely entangled.
# NF-κB = NF-κB activity (cell-based) reporter assay in NIH-3T3; parameters: species or system murine; conditions: 6-hour and 24-hour treatments
# Experimental: IL-1 and TNF were both identified as being proinflammatory cytokines that activate the transcription of genes driven by a transcription factor named NF-κB also involved in inflammatory processes. The inflammatory effect of IL-1 and TNF can therefore be indirectly assessed by means of a reporter gene assay (NF-κB) responding to IL-1 and TNF stimulation.
# On day one, 5×10^4 NIH-3T3 (murine fibroblast), stably transfected with a NF-κB reporter construct (Luciferase, Promega Corp.), were plated per well (24-well plate). Once confluent (on day 3-4), cells were starved by replacing the complete medium with 1 ml of serum-free medium. Following a 24-hour starvation, cells were treated with various concentrations of anti-microtubule agents 6 hours prior to the addition of IL-1 (20 ng/ml) and TNF (20 ng/ml). Cells were exposed to IL-1 and TNF for 1 hour and 16 hours and NF-κB activity measured 24 hours later. On day five, the medium was discarded and the cells were rinsed once with PBS. Cells were then extracted for 15 minutes with 250 μl of lysis buffer (Promega Corp., Wisconsin). NF-κB transcriptional activity was assessed by adding 25 μl of luciferase substrate to a tube containing 2.5 μl of cell extract. The tube was immediately inserted in a luminometer (Turner Designs) and light emission measured for 10 seconds. The luciferase data were then normalized for protein concentration.
# human keratinocytes = assay: Keratinocyte viable cell number (trypan blue exclusion); assay type: cell-based; conditions: 4 days
# Experimental: Following incubation, cells were collected and counted by the trypan blue exclusion assay.
compound,measurement,setting,value
CC(=O)O[C@H]1C(=O)[C@@]2(C)[C@H]([C@H](OC(=O)c3ccccc3)[C@]3(O)C[C@H](OC(=O)[C@H](O)[C@@H](NC(=O)c4ccccc4)c4ccccc4)C(C)=C1C3(C)C)[C@]1(OC(C)=O)CO[C@@H]1C[C@@H]2O [paclitaxel],IL-1 induced AP-1 reporter gene CAT activity,[1],reduced in chondrocytes by paclitaxel in a concentration dependent manner
same,inhibition of endothelial cell proliferation,EOMA cells [2]; 10^−7M or greater,completely inhibited cell proliferation
same,inhibition at 0.01 µM,"EOMA cells [2]; Endothelial cell, 10^−8M",> 50%
same,paclitaxel released,[3]; 5 mg of 30% loaded PLLA microspheres,400 µg
same,released fraction of total drug content,"[3]; 5% paclitaxel loaded PCL microspheres, after 21 days, PBS 37° C.",about 20%
same,paclitaxel released,[3]; 10% loaded PLLA microspheres,150 µg
same,released paclitaxel,"[3]; 20% paclitaxel loaded 0:100 PDLLA:PCL (PCL) paste, within 10 days",6%
same,released paclitaxel,"[3]; 20% paclitaxel loaded 70:30 PDLLA:PCL paste, within 10 days",11%
same,released paclitaxel,"[3]; 20% paclitaxel loaded 80:20 PDLLA:PCL paste, within 10 days",17%
same,released paclitaxel,"[3]; 20% paclitaxel loaded 90:10 PDLLA:PCL paste, within 10 hours",25-35%
same,released paclitaxel,"[3]; 20% paclitaxel loaded PDLLA-PEG-PDLLA cylinder, 20% PEG, 1 mm, 30 days",2%
same,released paclitaxel,"[3]; 20% paclitaxel loaded PDLLA-PEG-PDLLA cylinder, 30% PEG, 0.65 mm, 30 days",26%
same,released paclitaxel,"[3]; 20% paclitaxel loaded PDLLA-PEG-PDLLA cylinder, 30% PEG, 1 mm, 30 days, PBS albumin 37° C.",17%
same,drug released,"[3]; paclitaxel-nylon microcapsules, after 72 hours",more than 95%
same,concentrations inducing endothelial cell apoptosis,EOMA cells [4],greater than 10^−8 M
same,viability of normal non-proliferating cells,chondrocytes,does not affect the viability
same,IL-1 induced AP-1 binding activity,[5],decreased
same,skin irritation,"skin inflammation; 1% paclitaxel formulation, 20 μl to each side of the ears daily for 8 days, normal or inflamed ear skin",no detection of skin irritation
same,ear swelling and skin erythema induced by PMA,skin inflammation; topical 1% paclitaxel formulation,significantly inhibited ear swelling and skin erythema
same,"ear swelling, delayed-type hypersensitivity reaction (oxazolone)",skin inflammation; topical 1% paclitaxel gel versus vehicle alone,significant decrease in ear swelling
same,pEC50,LNCaP cells,~10.05
same,Adhesion-Free: number of uterine horns free of adhesions/total,adhesion formation; 0.1% in vehicle,0/20
same,Convolution: number of uterine horns with no convolution/partial convolution/full convolution,adhesion formation; 0.1% in vehicle,16/2/2†
same,Extent: length of uterine horn with adhesions (± Standard Error of the Mean),adhesion formation; 0.1% in vehicle,2.925 (0.338)* cm
same,Extent: length of uterine horn with adhesions (± Standard Error of the Mean),"adhesion formation; 0.1% in vehicle, listed as Paclitaxel",2.925±0.338 cm
same,Adhesion-Free: number of uterine horns free of adhesions/total,adhesion formation; 1% in vehicle,0/18
same,Convolution: number of uterine horns with no convolution/partial convolution/full convolution,adhesion formation; 1% in vehicle,18/0/0‡
same,Extent: length of uterine horn with adhesions (± Standard Error of the Mean),adhesion formation; 1% in vehicle,2.028±0.374 cm
same,Extent: length of uterine horn with adhesions (± Standard Error of the Mean),"adhesion formation; 1% in vehicle, listed as paclltaxel",2.028 (0.374)** cm
same,inhibitory effect on IL-1- and TNF-induced NF-κB activity,NF-κB,~2 µM
same,cell viability,human keratinocytes; 10^−7 M or higher,significant drop in cell viability
same,cell viability,human keratinocytes; 10^−8 M,87 % of untreated controls
same,cell viability,human keratinocytes; 10^−9 M,greater than 100 % of untreated controls
